Earlier results in patent US7183293B2, “Ether derivatives useful as inhibitors of PDE4 isozymes” (Pfizer Inc., priority 2001, dated 2007).

Tests used:
psoriatic lesions = conditions: in vivo
[1] = test system: FEV1 and forced vital capacity
bronchodilation = conditions: in vivo
[2] = in vivo
[3] = test system: LPS-stimulated ex vivo TNF release and PHA induced lymphocyte proliferation; conditions: oral dose of 300 mg
rheumatoid arthritis = test system: rheumatoid arthritis; parameters: dose or concentration left out as unconfirmed; conditions: 35 patients
SCW-induced arthritis = conditions: in vivo
canine tracheal PDE4 = conditions: at 100 nM
human PDE4B2B = human PDE4B2B (Homo sapiens, UniProt Q07343)
human PDE4B2B, sequence (Q07343 1-564 isoform Q07343-2): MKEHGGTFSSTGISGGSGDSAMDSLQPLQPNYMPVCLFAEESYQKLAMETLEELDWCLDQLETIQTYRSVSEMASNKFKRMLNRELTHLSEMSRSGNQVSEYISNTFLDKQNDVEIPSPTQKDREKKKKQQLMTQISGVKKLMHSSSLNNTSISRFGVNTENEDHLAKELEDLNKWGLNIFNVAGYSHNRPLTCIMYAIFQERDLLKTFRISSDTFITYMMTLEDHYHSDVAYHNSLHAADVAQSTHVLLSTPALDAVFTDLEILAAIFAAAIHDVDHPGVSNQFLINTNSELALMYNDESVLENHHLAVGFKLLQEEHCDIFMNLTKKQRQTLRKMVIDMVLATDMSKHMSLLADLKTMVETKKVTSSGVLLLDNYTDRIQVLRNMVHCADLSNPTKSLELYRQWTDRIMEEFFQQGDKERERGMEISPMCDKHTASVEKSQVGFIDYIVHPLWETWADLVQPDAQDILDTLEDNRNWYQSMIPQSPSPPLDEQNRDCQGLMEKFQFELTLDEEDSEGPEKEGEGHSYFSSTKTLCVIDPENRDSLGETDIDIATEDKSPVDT

[4] = test system: mean pulmonary artery pressure; conditions: oral administration, clinical conditions
PDE4B mutant enzyme = conditions: alanine for aspartate in the catalytic region
PDE4D = PDE4D (Homo sapiens, UniProt Q08499)
PDE4D, sequence (Q08499 whole entry, species assumed): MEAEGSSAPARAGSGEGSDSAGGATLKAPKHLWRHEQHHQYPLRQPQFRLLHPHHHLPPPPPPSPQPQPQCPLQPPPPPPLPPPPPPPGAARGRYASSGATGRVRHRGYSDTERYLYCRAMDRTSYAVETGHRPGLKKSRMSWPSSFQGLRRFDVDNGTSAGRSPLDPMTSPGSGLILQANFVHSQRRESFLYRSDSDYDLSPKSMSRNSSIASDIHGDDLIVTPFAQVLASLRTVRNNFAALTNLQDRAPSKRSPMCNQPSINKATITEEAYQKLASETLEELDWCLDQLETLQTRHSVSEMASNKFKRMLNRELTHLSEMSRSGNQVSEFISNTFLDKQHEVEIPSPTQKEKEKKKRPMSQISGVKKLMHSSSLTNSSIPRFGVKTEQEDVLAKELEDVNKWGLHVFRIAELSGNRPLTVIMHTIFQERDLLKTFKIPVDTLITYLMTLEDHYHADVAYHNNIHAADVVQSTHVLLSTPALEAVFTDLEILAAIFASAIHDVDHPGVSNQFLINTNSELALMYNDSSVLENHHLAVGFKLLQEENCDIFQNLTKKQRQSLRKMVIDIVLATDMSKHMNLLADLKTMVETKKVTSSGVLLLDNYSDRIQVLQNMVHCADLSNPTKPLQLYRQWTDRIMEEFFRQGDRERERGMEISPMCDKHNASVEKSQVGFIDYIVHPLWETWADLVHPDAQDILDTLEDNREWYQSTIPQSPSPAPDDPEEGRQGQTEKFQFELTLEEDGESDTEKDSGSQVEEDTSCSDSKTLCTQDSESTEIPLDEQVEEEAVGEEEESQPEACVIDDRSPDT

[5] = test system: lipopolysaccharide-induced bowel erythrocyte extravasation; conditions: rats; for lipopolysaccharide-induced bowel erythrocyte extravasation: pretreatment i.p. 3×
[6] = test system: T-cell mediated hepatic failure
[7] = test system: dextran sulfate induced colitis; conditions: rat
[8] = test system: experimental allergic encephalomyelitis; conditions: marmoset
[9] = test system: collagen induced arthritis
[10] = test system: lipopolysaccharide-induced mesenteric blood flow fall; conditions: dogs
[11] = test system: antigen-induced bronchospasm; conditions: rat
bone loss = conditions: serial oral administrations
[12] = test system: mineralized nodule formation and osteoclast-like cell formation
5-lipoxygenase [13] = conditions: in vivo
5-lipoxygenase [14] = conditions: a number of species

## CCCCOc1cc(CC2CNC(=O)N2)ccc1OC (centres unmarked) [Ro 20-1724]
Psoriatic lesions
  adverse systemic or cutaneous effects: without adverse systemic or cutaneous effects

## COc1ccc([C@]2(C#N)CC[C@@H](C(=O)O)CC2)cc1OC1CCCC1 [SB-207,499]
[1]; 15 mg twice a day for six weeks
  FEV and forced vital capacity (FVC): increrases
[1]; four week trial, six week study, 15 mg twice a day
  FEV1: improved FEV1

## COc1cc2c(cc1OC)[C@@H]1CN(C)CC[C@@H]1N=C2c1ccc(NC(C)=O)cc1 [benafentrine]
bronchodilation
  bronchodilation: bronchodilation only when administered by inhalation

## COc1ccc(C2CNC(=O)NC2)cc1O[C@H]1C[C@@H]2CC[C@H]1C2 [CP-80,633]
[2]
  emesis / nausea and vomiting: elicit emesis

## CCNc1ncn(Cc2ccc(OC)c(OC3CCCC3)c2)c2nc(C(C)C)nc1-2 [Example V-11294A]
[3]
  reducing TNF levels and lymphocyte proliferation: effective

## COc1ccc(C(=O)Nc2c(Cl)cncc2Cl)cc1OC1CCCC1 [RP73401]
Rheumatoid arthritis
  clinical improvement, C-reactive protein and IL-6 serum levels: positive trend towards clinical improvement
SCW-induced arthritis
  amelioration of disease (joint destruction, synovitis, fibrosis): significant amelioration of disease

## COc1ccc(C(=O)Cc2c(Cl)cncc2Cl)c2c1OCCCCO2 [Formula (0.0.49)]
Canine tracheal PDE4
  inhibition of canine tracheal PDE4: almost complete inhibition

## COC(=O)N1C[C@H](c2ccc(OC)c(OC3CCCC3)c2)[C@@](C)(C(C)=O)C1 (racemic) [Formula (0.0.61), (R,R)-(+/−)-methyl-3-acetyl-4-[3-(cyclopentyloxy)-4-methoxyphenyl]-3-methyl-1-pyrrolidine carboxylate]
Human PDE4B2B
  affinity to the catalytic and the HARB sites: equal affinity

## CSc1ccc(C(=O)c2[nH]c(=O)[nH]c2C)cc1 [enoximone]
[4]
  mean pulmonary artery pressure: decreases

## COc1ccc(C(=O)Nc2c(Cl)cncc2Cl)cc1OC1CCCC1 [RP-73,401]
[2]
  emesis / nausea and vomiting: elicit emesis
PDE4B mutant enzyme
  inhibition of mutant PDE4B: lose potency

## Cc1[nH]c(=O)c(C#N)cc1-c1ccncc1 [milrinone]
Pulmonary artery rings
  relaxant activities of isoproterenol and forskolin: same effect
bronchodilation
  adverse events: tachycardia and hypotension
  bronchodilation: short-lived bronchodilation
  protection against induced bronchoconstriction: slight degree of protection
[4]
  mean pulmonary artery pressure: decreases

## Nc1nc2c([nH]1)c(=O)n(CC1CC1)c(=O)n2CC1CC1 [BRL-61,063]
[2]
  emesis / nausea and vomiting: nausea and vomiting

## CCCn1c(=O)c2c(C)nc(CC)n2c2nc(OC)ccc21 [Example D-22888]
rhinorrhea; antigen-challenged pig
  rhinorrhea: inhibit rhinorrhea
rhinorrhea; pig, in vivo
  anti-allergic effect: strong anti-allergic affect

## O=c1c2cccnc2n(-c2cccc([N+](=O)[O-])c2)c(=O)n1Cc1ccncc1 [RS-25,344]
PDE4D
  potency against PDE4 subtypes: more potent against PDE4D

## COc1ccc(C2CNC(=O)C2)cc1OC1CCCC1 (centres unmarked) [rolipram]
[5]
  lipopolysaccharide induced erythrocyte extravasation: attenuated
  lipopolysaccharide-induced bowel erythrocyte extravasation: reduces
[6]; 0.1 to 10 mg/kg i.p., mice
  plasma activities of ALT, AST and SDH: dose-dependently inhibited
[6]; mouse, in vivo
  concanavalin A-induced IL-4 release: suppress
[7]
  effects in dextran sulfate induced colitis (bleeding and inflammatory markers): beneficial effects comparable to prednisolone
[8]
  clinical signs and MRI abnormalities: suppress the appearance of clinical signs
[9]; 3 mg/kg twice daily when arthritis was apparent
  development of the disease: progression of severity was halted
[9]; rat, in vivo
  TNF-α and IFN-γ mRNA expression in regional lymph nodes: strong down-regulation
Gastric parietal cells
  stimulation of acid secretion: very potent stimulator
Pulmonary artery rings
  relaxant activities of isoproterenol and forskolin: potentiates
[10]
  lipopolysaccharide induced intestinal hypoperfusion: attenuated
PDE4B mutant enzyme
  inhibition of mutant PDE4B: critical for inhibition

## CC(=O)CCCCn1c(=O)c2c(ncn2C)n(C)c1=O [pentoxifylline]
[5]
  lipopolysaccharide-induced bowel erythrocyte extravasation: reduces

## COc1ccc(C(=O)Nc2c(C)noc2C)cc1OC1CCCC1 [RPR-132294]
[11]
  inhibition of antigen-induced bronchospasm: activity

## Clc1nc2c(N3CCCC3)nc(N3CCNCC3)nc2nc1NCc1ccccc1 [Formula (0.0.55)]
Tumor cells
  inhibition of the growth of tumor cells: micromolar concentrations

## CCCCn1c(=O)c2c(ncn2CC(C)=O)n(CCCC)c1=O [denbufylline]
[5]
  lipopolysaccharide induced erythrocyte extravasation: attenuated
[10]
  lipopolysaccharide induced intestinal hypoperfusion: attenuated
Bone loss
  bone mineral density of femurs: inhibit the decrease in the bone mineral density
[12]
  number of mineralized nodules: increase in the number of mineralized nodules

## CCCn1c(=O)c2[nH]cnc2n(-c2ccc(Cl)cc2)c1=O [LAS31025]
[7]
  effects in dextran sulfate induced colitis (bleeding and inflammatory markers): beneficial effects comparable to prednisolone

## COc1ccc(CC2CNC(=O)N2)cc1OC1CCCC1 (centres unmarked) [Ro-20-1724]
PDE4B mutant enzyme
  inhibition of mutant PDE4B: lose potency

## O=c1c2cccnc2n(-c2cccc([N+](=O)[O-])c2)c(=O)n1Cc1ccncc1 [RS-23,544]
[2]
  emesis / nausea and vomiting: elicit emesis

## C[C@H](C#Cc1ccc(Oc2ccc(F)cc2)o1)N(O)C(N)=O [Abbott-79175]
5-lipoxygenase [13]
  duration of action: longer duration of action than zileuton

## CCCCn1c(=O)c2c(ncn2CC(C)=O)n(CCCC)c1=O [debufylline]
[5]
  lipopolysaccharide-induced bowel erythrocyte extravasation: reduces

## COC1(c2cc(F)cc(OCc3ccc4c(ccc(=O)n4C)c3)c2)CCOCC1 [ZD-2138]
5-lipoxygenase [14]
  oral activity: highly active orally
